Laboratory results taken from patent publication US8987314B2, “Amide, urea or sulfone amide linked benzothiazole inhibitors of endothelial lipase” (Bristol-Myers Squibb Company, priority 2012, dated 2015).
Read-outs that look alike come from different tables or passages of the source.

Experiments:
[1] = target: Endothelial lipase (EL) (Homo sapiens (Human), UniProt Q9Y5X9); assay: EL assay: endothelial lipase activity with fluorescent substrate A10070 in DMPG vesicles; type: biochemical
How it was run: (§1)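 Substrate A10070 sits in sonicated DMPG vesicles at 0.11 mole fraction. Lipase and compound preincubated 30 min, 37° C, in HEPES pH 8.0 buffer with CaCl2.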

[2] = target: hepatic lipase (HL) (Homo sapiens (Human), UniProt P11150); assay: HL assay: hepatic lipase activity with fluorescent substrate A10070 in DMPG vesicles; type: biochemical
Sequence of hepatic lipase (HL) (P11150 23-499, species assumed): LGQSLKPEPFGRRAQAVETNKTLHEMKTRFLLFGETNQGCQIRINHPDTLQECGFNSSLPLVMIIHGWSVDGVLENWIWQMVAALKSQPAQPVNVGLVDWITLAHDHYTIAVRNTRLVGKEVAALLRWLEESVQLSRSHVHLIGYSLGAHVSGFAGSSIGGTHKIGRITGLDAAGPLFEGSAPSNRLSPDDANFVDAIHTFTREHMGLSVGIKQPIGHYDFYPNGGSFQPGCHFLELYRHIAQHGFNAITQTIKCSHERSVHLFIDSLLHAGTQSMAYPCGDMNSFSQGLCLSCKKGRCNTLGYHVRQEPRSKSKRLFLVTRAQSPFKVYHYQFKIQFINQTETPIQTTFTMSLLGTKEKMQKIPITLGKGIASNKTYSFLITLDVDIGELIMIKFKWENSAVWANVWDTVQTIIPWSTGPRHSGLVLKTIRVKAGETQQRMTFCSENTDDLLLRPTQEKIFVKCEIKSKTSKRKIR
How it was run: as §1

[3] = EL from conditioned media of HT-1080 cells, 30 min incubation with compound at 37° C., A10070/DMPG vesicles
[4] = HL partially purified from conditioned media of COS cells, 30 min incubation with compound at 37° C., A10070/DMPG vesicles

Sequence of Endothelial lipase (EL) (Q9Y5X9 21-500): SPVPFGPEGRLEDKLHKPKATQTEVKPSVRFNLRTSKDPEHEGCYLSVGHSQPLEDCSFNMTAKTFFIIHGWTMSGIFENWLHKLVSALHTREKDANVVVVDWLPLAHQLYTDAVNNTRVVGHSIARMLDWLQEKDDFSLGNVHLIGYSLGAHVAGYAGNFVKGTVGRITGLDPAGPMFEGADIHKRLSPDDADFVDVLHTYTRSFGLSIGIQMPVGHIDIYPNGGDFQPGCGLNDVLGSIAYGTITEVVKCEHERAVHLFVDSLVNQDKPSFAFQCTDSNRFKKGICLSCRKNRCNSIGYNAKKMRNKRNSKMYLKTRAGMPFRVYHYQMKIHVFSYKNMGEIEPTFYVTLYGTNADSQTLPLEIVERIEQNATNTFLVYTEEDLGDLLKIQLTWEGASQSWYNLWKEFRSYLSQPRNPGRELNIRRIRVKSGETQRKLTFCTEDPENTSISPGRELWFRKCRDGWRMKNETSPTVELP

| SMILES | IC50 [1, 3] | IC50 [2, 4] | IC50 [1] | IC50 [2] |
| --- | --- | --- | --- | --- |
| CC(C)(C)OC(=O)c1ccc2nc(C(C(=O)NCCS(N)(=O)=O)S(=O)(=O)CCC(F)(F)F)sc2c1 (stereo not drawn) [Example B196, tert-Butyl 2-(2-oxo-2-((2-sulfamoylethyl)amino)-1-((3,3-trifluoropropyl)sulfonyl)ethyl)benzo[d]thiazole-6-carboxylate] | 65 nM | 379 nM |  |  |
| NS(=O)(=O)CCNC(=O)C(c1nc2ccc(C(=O)N3CCC(F)(F)C3)cc2s1)S(=O)(=O)CCC(F)(F)F (stereo not drawn) [Example B197, 2-(6-(3,3-Difluoropyrrolidine-1-carbonyl)benzo[d]thiazol-2-yl)-N-(2-sulfamoylethyl)-2-((3,3,3-trifluoropropyl)sulfonyl)acetamide] | < 10 nM | 10100 nM |  |  |
| NS(=O)(=O)CCNC(=O)C(c1nc2ccc(C(=O)NCCc3c[nH]cn3)cc2s1)S(=O)(=O)CCC(F)(F)F (stereo not drawn) [Example B198, N-(2-(1H-imidazol-4-yl)ethyl)-2-(2-oxo-2-((2-sulfamoylethyl)amino)-1-((3,3,3-trifluoropropyl)sul-fonyl)ethyl)-1,3-benzothiazole-6-carboxamide] |  |  | 148 nM | 3930 nM |
| CC(C)c1cc(CNC(=O)c2ccc3nc(C(C(=O)NCCS(N)(=O)=O)S(=O)(=O)CCC(F)(F)F)sc3c2)on1 (stereo not drawn) [Example B199, N-((3-isopropyl-5-isoxazolyl)methyl)-2-(2-oxo-2-((2-sulfamoylethyl)a-mino)-1-((3,3,3-trifluoropropyl)sulfonyl)eth-yl)-1,3-benzothiazole-6-carboxamide] |  |  | 166 nM | 3670 nM |
| NS(=O)(=O)CCNC(=O)C(c1nc2ccc(C(=O)N3CC(F)(F)C3)cc2s1)S(=O)(=O)CCC(F)(F)F (stereo not drawn) [Example B200, 2-(6-((3,3-difluoro-1-azetidinyl)carbonyl)-1,3-benzothiazol-2-yl)-N-(2-sulfamoylethyl)-2-((3,3,3-trifluoropropyl)sulfonyl)a-cetamide] |  |  | 26 nM | 10000 nM |
| NS(=O)(=O)CCNC(=O)C(c1nc2ccc(C(=O)N3CCc4ccccc4C3)cc2s1)S(=O)(=O)CCC(F)(F)F (stereo not drawn) [Example B201, 2-(6-(3,4-dihydro-2(1H)-isoquinolinylcarbonyl)-1,3-benzothiazol-2-yl)-N-(2-sulfamoylethyl)-2-((3,3,3-trifluoropropyl)sulfonyl)a-cetamide] |  |  | 23 nM | 311 nM |
| COCCNC(=O)c1cccc(-c2ccc3nc(C(C(=O)NCCS(N)(=O)=O)S(=O)(=O)CCC(F)(F)F)sc3c2)c1 (stereo not drawn) [Example B202, N-(2-methoxyethyl)-3-(2-(2-oxo-2-((2-sulfamoylethyl)amino)-1-((3,3,3-trifluoropropyl)sulfonyl)ethyl)benzo[d]thiazol-6-yl)benzamide] | 24 nM | 170 nM |  |  |
| Cc1cc2nc(C(C(=O)NCCS(N)(=O)=O)S(C)(=O)=O)sc2cc1-c1cnn(C)c1 (stereo not drawn) [Example B203, 2-(5-methyl-6-(1-methyl-1H-pyrazol-4-yl)-1,3-benzothiazol-2-yl)-2-(methylsulfonyl)-N-(2-sulfamoylethyl)acetamide] | 10 nM | 141 nM |  |  |
| COCCS(=O)(=O)C(C(=O)NCc1nnc(C)o1)c1nc2ccc(-c3ccccc3)cc2s1 (stereo not drawn) [Example B204, 2-(2-methoxyethane-sulfonyl)-N-[(5-methyl-1,3,4-oxadiazol-2-yl)methyl]-2-(6-phenyl-1,3-benzothiazol-2-yl)a-cetamide] |  |  | 23.7 nM | 17.5 nM |
| COC(=O)CCS(=O)(=O)C(C(=O)NCc1nnc(C)o1)c1nc2ccc(-c3ccccc3)cc2s1 (stereo not drawn) [Example B205, methyl 3-({[(5-methyl-1,3,4-oxadiazol-2-yl)meth-yl]carbamoyl}(6-phenyl-1,3-benzothiazol-2-yl)methanesulfonyl)pro-panoate] |  |  | 205 nM | 101 nM |
| CS(=O)(=O)C(C(=O)NCCS(N)(=O)=O)c1nc2ccc(-c3ccc(Cl)cc3)cc2s1 (stereo not drawn) [Example B207, 2-[6-(4-chlorophenyl)-1,3-benzothiazol-2-yl]-2-methanesulfonyl-N-(2-sulfamoylethyl)acetamide] |  |  | 1.4 nM | 2.8 nM |
| CS(=O)(=O)C(C(=O)NCCS(N)(=O)=O)c1nc2ccc(-c3cccc(Cl)c3)cc2s1 (stereo not drawn) [Example B208, 2-[6-(3-chlorophenyl)-1,3-benzothiazol-2-yl]-2-methanesulfonyl-N-(2-sulfamoylethyl)acetamide] |  |  | 0.8 nM | 0.8 nM |
| CS(=O)(=O)C(C(=O)NCCS(N)(=O)=O)c1nc2ccc(-c3cc(F)cc(Cl)c3)cc2s1 (stereo not drawn) [Example B209, 2-[6-(3-chloro-5-fluorophenyl)-1,3-benzothiazol-2-yl]-2-methanesulfonyl-N-(2-sulfamoylethyl)acetamide] |  |  | 8 nM | 13.9 nM |
| CS(=O)(=O)C(C(=O)NCCS(N)(=O)=O)c1nc2ccc(-c3ccc(C(N)=O)cc3)cc2s1 (stereo not drawn) [Example B214, 4-(2-{methanesulfonyl[(2-sul-famoylethyl)carbamoyl]meth-yl}-1,3-benzothiazol-6-yl)benzamide] |  |  | 1.6 nM | 160 nM |
| COCc1cccc(-c2ccc3nc(C(C(=O)NCCS(N)(=O)=O)S(C)(=O)=O)sc3c2)c1 (stereo not drawn) [Example B215, 2-methanesulfonyl-2-{6-[3-(methoxymethyl)phen-yl]-1,3-benzothiazol-2-yl}-N-(2-sulfamoylethyl)a-cetamide] |  |  | 4.4 nM | 3.6 nM |
| CS(=O)(=O)C(C(=O)NCCS(N)(=O)=O)c1nc2ccc(-c3ccc(C(=O)NC4CC4)cc3)cc2s1 (stereo not drawn) [Example B216, N-cyclopropyl-4-(2-{methanesulfonyl[(2-sulfa-moylethyl)carbamoyl]meth-yl}-1,3-benzothiazol-6-yl)benzamide] |  |  | 2.1 nM | 155 nM |
| CC(C)Oc1ccc(-c2ccc3nc(C(C(=O)NCCS(N)(=O)=O)S(C)(=O)=O)sc3c2)cc1Cl (stereo not drawn) [Example B217, 2-{6-[3-chloro-4-(propan-2-yloxy)phenyl]-1,3-benzothiazol-2-yl}-2-methanesulfonyl-N-(2-sulfamoylethyl)acetamide] |  |  | 2.3 nM | 3.6 nM |
| CC(C)(C)OC(=O)n1ccc(-c2ccc3nc(C(C(=O)NCCS(N)(=O)=O)S(C)(=O)=O)sc3c2)c1 (stereo not drawn) [Example B220, tert-butyl 3-(2-{methanesulfonyl[(2-sulfa-moylethyl)carbamoyl]meth-yl}-1,3-benzothiazol-6-yl)-1H-pyrrole-1-carboxylatc] |  |  | 51.4 nM | 2.8 nM |
| CS(=O)(=O)C(C(=O)NCCS(N)(=O)=O)c1nc2ccc(-c3cnn(CCC(F)(F)F)c3)cc2s1 (stereo not drawn) [Example B221, 2-methanesulfonyl-N-(2-sulfamoylethyl)-2-{6-[1-(3,3,3-trifluoropropyl)-1H-pyrazol-4-yl]-1,3-benzothiazol-2-yl}acetamide] |  |  | 78.1 nM | 308 nM |
| CS(=O)(=O)C(C(=O)NCCS(N)(=O)=O)c1nc2ccc(-c3cncs3)cc2s1 (stereo not drawn) [Example B222, 2-methanesulfonyl-N-(2-sulfamoylethyl)-2-[6-(1,3-thiazol-5-yl)-1,3-benzothiazol-2-yl]a-cetamide] |  |  | 12.3 nM | 31.6 nM |
| CS(=O)(=O)C(C(=O)NCCS(N)(=O)=O)c1nc2ccc(-c3ccc(-c4nnc(N)s4)cc3)cc2s1 (stereo not drawn) [Example B223, 2-{6-[4-(5-amino-1,3,4-thiadiazol-2-yl)phenyl]-1,3-benzothiazol-2-yl}-2-methanesulfonyl-N-(2-sulfamoylethyl)acetamide] |  |  | 1.2 nM | 7.7 nM |
| CS(=O)(=O)C(C(=O)NCCS(N)(=O)=O)c1nc2ccc(-c3ccc(-c4ncco4)cc3)cc2s1 (stereo not drawn) [Example B224, 2-methanesulfonyl-2-{6-[4-(1,3-oxazol-2-yl)phen-yl]-1,3-benzothiazol-2-yl}-N-(2-sulfamoylethyl)a-cetamide] |  |  | 8.4 nM | 10 nM |
| Cc1nnc(-c2ccc(-c3ccc4nc(C(C(=O)NCCS(N)(=O)=O)S(C)(=O)=O)sc4c3)cc2)o1 (stereo not drawn) [Example B225, 2-methanesulfonyl-2-{6-[4-(5-methyl-1,3,4-oxadiazol-2-yl)phenyl]-1,3-benzothiazol-2-yl}-N-(2-sulfamoylethyl)a-cetamide] |  |  | 4.9 nM | 15.4 nM |
| NS(=O)(=O)CCNC(=O)C(c1nc2ccc(-c3ccc(C(=O)NC4CC4)cc3)cc2s1)S(=O)(=O)Cc1ccc(OC(F)(F)F)cc1 (stereo not drawn) [Example B226, N-cyclopropyl-4-(2-{[(2-sulfamoylethyl)carbamoyl][4-(trifluoromethoxy)phen-yl]methanesulfonyl-methyl}-1,3-benzothiazol-6-yl)benzamide] |  |  | 0.5 nM | 74 nM |
| NC(=O)c1ccc(-c2ccc3nc(C(C(=O)NCCS(N)(=O)=O)S(=O)(=O)Cc4ccc(OC(F)(F)F)cc4)sc3c2)cc1 (stereo not drawn) [Example B227, 4-(2-{[(2-sulfamoylethyl)car-bamoyl][4-(trifluoromethoxy)phen-yl]methanesulfonyl-methyl}-1,3-benzothiazol-6-yl)benzamide] |  |  | 0.5 nM | 80.8 nM |
| NC(=O)c1ccc(-c2ccc3nc(C(C(=O)NCCS(N)(=O)=O)S(=O)(=O)CCC(F)(F)F)sc3c2)cc1 (stereo not drawn) [Example B228, 4-(2-{[(2-sulfamoylethyl)car-bamoyl](3,3,3-trifluoro-propanesulfonyl)methyl}-1,3-benzothiazol-6-yl)ben-zamide] |  |  | 9.2 nM | 250 nM |
| CN(C)C(=O)c1ccc(-c2ccc3nc(C(C(=O)NCCS(N)(=O)=O)S(=O)(=O)Cc4ccc(OC(F)(F)F)cc4)sc3c2)cc1F (stereo not drawn) [Example B229, 2-fluoro-N,N-dimethyl-4-(2-{[(2-sulfamoylethyl)car-bamoyl][4-(trifluoro-methoxy)phenyl]methane-sulfonylmethyl}-1,3-benzothiazol-6-yl)ben-zamide] |  |  | 29.2 nM | 242 nM |
